From patent US20050118290A1, “Compositions and method for treatment of steroid/nuclear receptor-mediated diseases” (University of Singapore, priority 2003, published 2005) come the findings set out here.

The target in test [1] is T1, human estrogen receptor ERβ (Homo sapiens, UniProt Q92731).
T1 construct: expressed in transfected cells; host or cells: HeLa
The test is described as follows: ERβ MMTV-ERE-LUC reporter gene assay in HeLa cells. As to conditions: for ERβ activity comparable to % maximal activity of Estradiol / maximal fold increase in ERβ activity: 30×10^−6 g/ml. Format: cell-based. Here is the method:
ERα and ERβ activity were assayed using plasmids encoding either ERα or ERβ co-transfected with the ERE-LUC reporter gene. To assay estrogen receptor agonist activity, HeLa cells were transiently co-transfected with two plasmids (Tcherepanova, et al., 2000) using Lipofectamine. The first plasmid comprised DNA encoding human estrogen receptor (either ERα or ERβ), and the second plasmid comprised an estrogen-driven reporter system comprising: a luciferase reporter gene (LUC) whose transcription is under the control of upstream regulatory elements comprising 4 copies of the vitellogenin estrogen response element (ERE) cloned into the Mouse Mammary Tumor Virus (MMTV) promoter (the full name of the reporter system being ‘MMTV-ERE-LUC’).
AR, PR, GR and ERα and […] were determined by comparing luciferase activity in test cells with control cells exposed to vehicle (i.e., ethanol or methanol) only, analogous to the determination of PPAR activity as described in the previous examples.
Background: Reporter assays use an easily measured gene product as a stand-in for the process of interest.

In the next test the target is T2, PPARα (Homo sapiens, UniProt Q07869).
T2 construct: expressed in transfected cells; host or cells: HeLa
T2 sequence (Q07869 239-466 limits assumed): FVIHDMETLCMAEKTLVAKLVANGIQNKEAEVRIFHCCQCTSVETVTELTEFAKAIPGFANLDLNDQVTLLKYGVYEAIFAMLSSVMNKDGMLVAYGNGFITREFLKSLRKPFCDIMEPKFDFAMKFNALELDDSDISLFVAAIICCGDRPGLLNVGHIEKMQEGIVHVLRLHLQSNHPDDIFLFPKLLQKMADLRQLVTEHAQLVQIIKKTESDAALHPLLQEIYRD
The test is described as follows: Chimeric Gal4DBD-PPARαLBD receptor / UASg-luciferase reporter gene assay in HeLa cells. In kind it is cell-based. From the text: In an example of such a reporter gene assay, a plasmid containing chimeric Ga14DBD-PPARLBD receptor cDNA was constructed by excising the ligand binding domain (LBD) of full length PPARγ and PPARα and ligating the resulting fragments in frame to the Ga14-DNA binding domain (DBD) of Saccharomyces cerevisiae in a pM vector (Clontech). Specifically, to construct Ga14DBD-PPARγLBD plasmid, pSG5 expression vector (Stratagene) containing full length PPARγ was excised with Rsa I and blunt ligated to Hind III site of pMGa14DBD expression plasmid (Clontech). To construct Ga14DBD-PPARαLBD plasmid, pSG5 expression vector (Stratagene) containing full length PPARα was excised with BstU I and BamH I and blunt-end ligated in frame to BamH I site of pMGa14DBD expression plasmid (Clontech). […] Ga14 DBD binds very strongly to the exogenous UASg promoter, thereby giving rise to a sensitive and specific assay. To measure PPARγ and PPARα agonist activity, HeLa cells were grown in 24-well microtiter plates and then transiently co-transfected with the two plasmids (chimeric PPAR receptor and UASg reporter gene) using Lipofectamine (Invitrogen). […] Concurrently, cells exposed to known PPAR ligands served as positive controls. Replicate wells, exposed to the vehicle solvent (i.e., ethanol or methanol) in which herbal extracts were dissolved, were used as negative controls. After the 40 hr incubation period, cells were rinsed with phosphate buffered saline (PBS), lysis buffer was added, and cell lysates were collected for measurement of luciferase activity using a luminometer. […] All data points are in triplicate. The data points represent the mean of triplicate wells. Luciferase activity in such an assay accurately reflects the activity of any ligands on PPARγ or PPARα.

T1 sequence (Q92731 whole entry): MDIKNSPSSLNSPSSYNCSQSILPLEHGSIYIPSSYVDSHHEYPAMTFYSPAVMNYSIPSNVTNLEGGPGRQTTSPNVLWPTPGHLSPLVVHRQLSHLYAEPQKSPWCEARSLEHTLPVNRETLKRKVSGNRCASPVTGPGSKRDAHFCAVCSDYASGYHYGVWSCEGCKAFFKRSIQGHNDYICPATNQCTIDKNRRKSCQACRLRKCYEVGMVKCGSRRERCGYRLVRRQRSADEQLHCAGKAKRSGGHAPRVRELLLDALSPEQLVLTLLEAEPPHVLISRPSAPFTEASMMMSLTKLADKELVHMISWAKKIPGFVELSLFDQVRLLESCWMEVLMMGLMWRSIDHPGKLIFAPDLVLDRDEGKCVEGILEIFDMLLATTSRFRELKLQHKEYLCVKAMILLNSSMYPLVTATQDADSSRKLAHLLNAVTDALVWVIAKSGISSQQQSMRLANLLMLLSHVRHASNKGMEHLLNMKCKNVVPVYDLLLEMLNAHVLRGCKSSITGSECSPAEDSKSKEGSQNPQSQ

As for `COc1ccc(-c2coc3cc(O)ccc3c2=O)cc1O` [calycosin, 3′,7-Dihydroxy-4′-methoxyisoflavone], the “effect on ERβ activity of estradiol” value in test [1] (1 to 30×10^−6 g/mL + estradiol 1×10^−9M) was “additive”. In addition, the “ERβ activity comparable to % maximal activity of Estradiol” value in test [1] is on record as around 400%. Also, the “maximal fold increase in ERβ activity” value in test [1] is 100 fold. The “Luciferase activity (Fold over vehicle ± SE) ERβ/Estradiol (1 × 10^−9M)” value in test [1] (calycosin 3 ×10^−6 g/mL) was found to be 55.2 ± 1.21 Fold; in test [1] (calycosin 10 ×10^−6 g/mL), 65.1 ± 2.71 Fold; in test [1] (calycosin 30 ×10^−6 g/mL), 70.7 ± 3.61 Fold. For the same molecule, the “Luciferase activity (Fold over vehicle ± SE) PPARα/WY14643 (30 × 10^−6M)” value turned out to be 197 ± 20.6 Fold at PPARα (calycosin 3 ×10^−6 g/mL), 257 ± 8.85 Fold at PPARα (calycosin 10 ×10^−6 g/mL) and 294 ± 39.2 Fold on PPARα (calycosin 30 ×10^−6 g/mL). For the same molecule, the “increase of the activity of maximal doses of PPARα agonist” value on PPARα (with WY14643 30×10^−6M) stood at 1.8 fold.

As to `O=c1c(-c2ccc(O)cc2)coc2cc(O)ccc12` [daidzein], in test [1], the “ERβ activity comparable to % maximal activity of Estradiol” value is given as around 200% and the “maximal fold increase in ERβ activity” value is 29 fold. In addition, at PPARα (10×10^−6 g/ml), the “PPARα activity comparable to % maximal activity of W14643” value is around 73% and the “maximal fold PPARα activity” value amounted to 8 fold. Further, the “Luciferase activity (Fold over vehicle ± SE) PPARα/WY14643 (30 × 10^−6M)” value at PPARα (daidzein 5 ×10^−6 g/mL) is listed as 58.2 ± 14.9 Fold. Also, at PPARα (daidzein 10 ×10^−6 g/mL), the “Luciferase activity (Fold over vehicle ± SE) PPARα/WY14643 (30 × 10^−6M)” value was found to be 71.3 ± 9.90 Fold. Moreover, the “Luciferase activity (Fold over vehicle ± SE) PPARα/WY14643 (30 × 10^−6M)” value at PPARα (daidzein 20 ×10^−6 g/mL) was determined as 53.4 ± 13.3 Fold.
